Experimental data: publication PMC5218480 (PLoS ONE, 2017)

System: MV-4-11 cells
Experiment: Gene expression microarray analysis (Affymetrix PrimeView) and GSEA
Type: cell-based, human
Design: RFU PODN (11730768_x_at) / Fold change /veh PODN (11730768_x_at) / RFU LINC00158 (11744669_a_at) / Fold change /veh LINC00158 (11744669_a_at) / RFU DUSP10 (11751237_a_at) / Fold change /veh DUSP10 (11751237_a_at) / RFU ID3 (11757404_x_at) / Fold change /veh ID3 (11757404_x_at) / RFU PLEKHG5 (11737974_s_at) / Fold change /veh PLEKHG5 (11737974_s_at) / RFU LRRC4B (11730491_at) / Fold change /veh LRRC4B (11730491_at) / RFU GIMAP4 (11747438_a_at) / Fold change /veh GIMAP4 (11747438_a_at) / RFU KRT8 (11758183_x_at) / Fold change /veh KRT8 (11758183_x_at) / RFU CNN1 (11734310_a_at) / Fold change /veh CNN1 (11734310_a_at) / RFU VPS37D (11726825_at) / Fold change /veh VPS37D (11726825_at) / RFU C10orf10 (11716522_x_at) / Fold change /veh C10orf10 (11716522_x_at) / RFU KIR2DL2 /// KIR2DL4 /// KIR2DL5A /// KIR2DL5B /// KIR2DS1 /// KIR2DS2 /// KIR2DS3 /// KIR2DS4 /// KIR3DL3 /// KIR3DL3 /// KIR3DS1 (11738374_at) / Fold change /veh KIR2DL2 /// KIR2DL4 /// KIR2DL5A /// KIR2DL5B /// KIR2DS1 /// KIR2DS2 /// KIR2DS3 /// KIR2DS4 /// KIR3DL3 /// KIR3DL3 /// KIR3DS1 (11738374_at) / RFU C1QL1 (11718748_at) / Fold change /veh C1QL1 (11718748_at) / RFU TMPRSS4 (11747572_a_at) / Fold change /veh TMPRSS4 (11747572_a_at) / RFU HAMP (11756126_x_at) / Fold change /veh HAMP (11756126_x_at) / RFU RNFT2 (11725882_a_at) / Fold change /veh RNFT2 (11725882_a_at) / RFU NR4A2 (11747474_a_at) / Fold change /veh NR4A2 (11747474_a_at) / RFU ABCC12 (11746883_a_at) / Fold change /veh ABCC12 (11746883_a_at) / RFU TMEM136 (11760407_x_at) / Fold change /veh TMEM136 (11760407_x_at) / RFU CLDN22 /// WWC2 (11732394_at) / Fold change /veh CLDN22 /// WWC2 (11732394_at) / RFU HLA-DPB1 (11760878_x_at) / Fold change /veh HLA-DPB1 (11760878_x_at) / RFU SPINT1 (11716480_a_at) / Fold change /veh SPINT1 (11716480_a_at) / RFU GAP43 (11754022_s_at) / Fold change /veh GAP43 (11754022_s_at) / RFU A4GNT (11735810_at) / Fold change /veh A4GNT (11735810_at) / RFU PRB3 (11715151_x_at) / Fold change /veh PRB3 (11715151_x_at) / RFU TUBB4B (11761932_at) / Fold change /veh TUBB4B (11761932_at) / RFU CAPN14 (11732068_a_at) / Fold change /veh CAPN14 (11732068_a_at) / RFU TMCC2 (11721928_a_at) / Fold change /veh TMCC2 (11721928_a_at) / RFU IRGQ (11745062_a_at) / Fold change /veh IRGQ (11745062_a_at) / RFU FAM174B (11720279_a_at) / Fold change /veh FAM174B (11720279_a_at) / RFU TMPRSS4 (11748680_a_at) / Fold change /veh TMPRSS4 (11748680_a_at) / RFU FAM212B (11763350_a_at) / Fold change /veh FAM212B (11763350_a_at) / RFU PLEKHG5 (11743358_a_at) / Fold change /veh PLEKHG5 (11743358_a_at) / RFU ZSCAN30 (11745921_a_at) / Fold change /veh ZSCAN30 (11745921_a_at) / RFU CMKLR1 (11741424_a_at) / Fold change /veh CMKLR1 (11741424_a_at) / RFU LOC101060620 /// MAPK8IP1 (11723275_at) / Fold change /veh LOC101060620 /// MAPK8IP1 (11723275_at) / RFU SPTSSB (11747773_x_at) / Fold change /veh SPTSSB (11747773_x_at) / RFU PRSS12 (11739890_at) / Fold change /veh PRSS12 (11739890_at) / RFU BIN1 (11741810_x_at) / Fold change /veh BIN1 (11741810_x_at) / RFU WNT11 (11732464_a_at) / Fold change /veh WNT11 (11732464_a_at) / RFU C10orf10 (11716521_a_at) / Fold change /veh C10orf10 (11716521_a_at) / RFU C5orf56 (11738089_at) / Fold change /veh C5orf56 (11738089_at) / RFU CYB561 (11721691_x_at) / Fold change /veh CYB561 (11721691_x_at) / RFU ANKRD19P (11752326_a_at) / Fold change /veh ANKRD19P (11752326_a_at) / RFU OR2T12 /// OR2T33 /// OR2T8 (11738714_s_at) / Fold change /veh OR2T12 /// OR2T33 /// OR2T8 (11738714_s_at) / RFU VCAN (11748164_a_at) / Fold change /veh VCAN (11748164_a_at) / RFU JSRP1 (11732532_at) / Fold change /veh JSRP1 (11732532_at) / RFU KRTAP10-11 (11738290_x_at) / Fold change /veh KRTAP10-11 (11738290_x_at) / RFU MYO3A (11730013_a_at) / Fold change /veh MYO3A (11730013_a_at) / RFU EBF3 (11725865_a_at) / Fold change /veh EBF3 (11725865_a_at) / RFU CAMK2N1 (11719241_x_at) / Fold change /veh CAMK2N1 (11719241_x_at) / RFU C5orf56 (11738088_a_at) / Fold change /veh C5orf56 (11738088_a_at) / RFU OLFML3 (11715873_a_at) / Fold change /veh OLFML3 (11715873_a_at) / RFU LOC100653217 /// NTM (11731650_a_at) / Fold change /veh LOC100653217 /// NTM (11731650_a_at) / RFU MAPK11 (11762145_a_at) / Fold change /veh MAPK11 (11762145_a_at) / RFU FIZ1 (11724087_x_at) / Fold change /veh FIZ1 (11724087_x_at) / RFU OASL (11726364_x_at) / Fold change /veh OASL (11726364_x_at) / RFU SOX15 (11748057_x_at) / Fold change /veh SOX15 (11748057_x_at) / RFU CD79A (11719716_a_at) / Fold change /veh CD79A (11719716_a_at) / RFU HIST1H1D (11736915_at) / Fold change /veh HIST1H1D (11736915_at) / RFU CASKIN2 (11723855_a_at) / Fold change /veh CASKIN2 (11723855_a_at) / RFU LOC730098 (11760151_x_at) / Fold change /veh LOC730098 (11760151_x_at) / RFU OR4N2 (11742367_at) / Fold change /veh OR4N2 (11742367_at) / RFU PRRT2 (11749266_a_at) / Fold change /veh PRRT2 (11749266_a_at) / RFU SNX32 (11753110_a_at) / Fold change /veh SNX32 (11753110_a_at) / RFU CDHR5 (11726645_a_at) / Fold change /veh CDHR5 (11726645_a_at) / RFU RCAN1 (11760418_a_at) / Fold change /veh RCAN1 (11760418_a_at) / RFU FAM167A (11723789_a_at) / Fold change /veh FAM167A (11723789_a_at) / RFU FAM26E (11764081_at) / Fold change /veh FAM26E (11764081_at) / RFU ISYNA1 (11749810_s_at) / Fold change /veh ISYNA1 (11749810_s_at) / RFU ACY1 (11761880_at) / Fold change /veh ACY1 (11761880_at) / RFU 11764098_at / Fold change /veh 11764098_at / RFU SAMD14 (11745864_x_at) / Fold change /veh SAMD14 (11745864_x_at) / RFU NPB (11741838_a_at) / Fold change /veh NPB (11741838_a_at) / RFU TMPRSS6 (11731388_a_at) / Fold change /veh TMPRSS6 (11731388_a_at) / RFU KRTAP10-2 (11738614_at) / Fold change /veh KRTAP10-2 (11738614_at) / RFU ARHGAP8 /// PRR5-ARHGAP8 (11727945_x_at) / Fold change /veh ARHGAP8 /// PRR5-ARHGAP8 (11727945_x_at) / RFU KRTAP5-7 /// NADSYN1 (11734609_at) / Fold change /veh KRTAP5-7 /// NADSYN1 (11734609_at) / RFU RASL12 (11751679_a_at) / Fold change /veh RASL12 (11751679_a_at) / RFU CDKN2B (11736163_a_at) / Fold change /veh CDKN2B (11736163_a_at) / RFU PRF1 (11729649_at) / Fold change /veh PRF1 (11729649_at) / RFU, ZNF638 /// ZNF638-IT1 / Fold change vs veh, ZNF638 /// ZNF638-IT1 / RFU, PANK3 / Fold change vs veh, PANK3 / RFU, SH3YL1 / Fold change vs veh, SH3YL1 / RFU, ZEB2 / Fold change vs veh, ZEB2 / RFU, NRIP1 / Fold change vs veh, NRIP1 / RFU, PTTG1IP / Fold change vs veh, PTTG1IP / RFU, CAPN2 / Fold change vs veh, CAPN2 / RFU, MED14 / Fold change vs veh, MED14 / RFU, SNORA58 / Fold change vs veh, SNORA58 / RFU, C1orf63 / Fold change vs veh, C1orf63 / RFU, LRRFIP1 / Fold change vs veh, LRRFIP1 / RFU, NDUFAF7 / Fold change vs veh, NDUFAF7 / RFU, SLC12A2 / Fold change vs veh, SLC12A2 / RFU, IBTK / Fold change vs veh, IBTK / RFU, ESF1 / Fold change vs veh, ESF1 / Fold change vs veh, TMEM50B / RFU, TAOK1 / Fold change vs veh, TAOK1 / RFU, ACBD3 / Fold change vs veh, ACBD3 / RFU, TMA16 / Fold change vs veh, TMA16 / RFU, RWDD3 / Fold change vs veh, RWDD3 / RFU, BCAT1 / Fold change vs veh, BCAT1 / RFU, EDEM3 / Fold change vs veh, EDEM3 / RFU, TMEM33 / Fold change vs veh, TMEM33 / RFU, WDR75 / Fold change vs veh, WDR75 / RFU, AHCTF1 / Fold change vs veh, AHCTF1 / RFU, TFRC / Fold change vs veh, TFRC / RFU, ZDHHC17 / Fold change vs veh, ZDHHC17 / RFU, NOM1 / Fold change vs veh, NOM1 / RFU, ARL8B / Fold change vs veh, ARL8B / RFU, ZBTB11 / Fold change vs veh, ZBTB11 / RFU, TAMM41 / Fold change vs veh, TAMM41 / RFU, KIAA1704 /// LOC100996395 / Fold change vs veh, KIAA1704 /// LOC100996395 / RFU, ING1 / Fold change vs veh, ING1 / RFU, TRMT61B / Fold change vs veh, TRMT61B / RFU, FUBP3 / Fold change vs veh, FUBP3 / RFU, TP53 / Fold change vs veh, TP53 / RFU, TNKS2 / Fold change vs veh, TNKS2 / RFU, ZFP14 / Fold change vs veh, ZFP14 / RFU, ACTR2 / Fold change vs veh, ACTR2 / RFU, PPP3R1 / Fold change vs veh, PPP3R1 / RFU, PIK3R1 / Fold change vs veh, PIK3R1 / RFU, HNRNPA1 / Fold change vs veh, HNRNPA1 / RFU, RNF170 / Fold change vs veh, RNF170 / RFU, ZNF28 / Fold change vs veh, ZNF28 / RFU, RNGTT / Fold change vs veh, RNGTT / RFU, OGT / Fold change vs veh, OGT / RFU, BRD1 / Fold change vs veh, BRD1 / RFU, MARS / Fold change vs veh, MARS / RFU, ZNF655 / Fold change vs veh, ZNF655 / RFU, FAHD1 / Fold change vs veh, FAHD1 / RFU, BDP1 / Fold change vs veh, BDP1 / RFU, LRRCC1 / Fold change vs veh, LRRCC1 / RFU, ARID1A / Fold change vs veh, ARID1A / RFU, ZNF146 / Fold change vs veh, ZNF146 / RFU, ZNF330 / Fold change vs veh, ZNF330 / RFU, GPN3 / Fold change vs veh, GPN3 / RFU, C9orf123 / Fold change vs veh, C9orf123 / RFU, N4BP2L2 / Fold change vs veh, N4BP2L2 / RFU, ARFIP1 / Fold change vs veh, ARFIP1 / RFU, FAM179B / Fold change vs veh, FAM179B / RFU, BCL10 / Fold change vs veh, BCL10 / RFU, UHRF1BP1L / Fold change vs veh, UHRF1BP1L / RFU, BET1 / Fold change vs veh, BET1 / RFU, CNOT2 / Fold change vs veh, CNOT2 / RFU, ZNF268 / Fold change vs veh, ZNF268 / Fold change vs veh, ZNF507 / RFU, DGCR2 / Fold change vs veh, DGCR2 / RFU, WDSUB1 / Fold change vs veh, WDSUB1 / Fold change vs veh, HSP90B1 /// MIR3652 / RFU, ADSS / Fold change vs veh, ADSS / RFU, GK / Fold change vs veh, GK / RFU, ZNF148 / Fold change vs veh, ZNF148 / RFU, TAF9 / Fold change vs veh, TAF9 / RFU, SLC1A5 / Fold change vs veh, SLC1A5 / RFU, SLMO2 / Fold change vs veh, SLMO2 / RFU, ABCC4 / Fold change vs veh, ABCC4 / RFU, LOC101060439 /// RAP1B / Fold change vs veh, LOC101060439 /// RAP1B / RFU, RFX7 / Fold change vs veh, RFX7 / RFU, GTPBP10 / Fold change vs veh, GTPBP10 / RFU, CNEP1R1 / Fold change vs veh, CNEP1R1 / RFU, BIVM-ERCC5 /// ERCC5 / Fold change vs veh, BIVM-ERCC5 /// ERCC5 / RFU, ILF3 / Fold change vs veh, ILF3 / RFU 11762660_at / Fold change /veh 11762660_at / RFU VCAN (11757783_s_at) / Fold change /veh VCAN (11757783_s_at) / RFU DDX43 (11728927_at) / Fold change /veh DDX43 (11728927_at) / RFU KRT8 (11758188_x_at) / Fold change /veh KRT8 (11758188_x_at) / RFU NKD1 (11759106_at) / Fold change /veh NKD1 (11759106_at) / RFU SRD5A1 (11742802_a_at) / Fold change /veh SRD5A1 (11742802_a_at) / RFU TPSAB1 /// TPSB2 (11721975_s_at) / Fold change /veh TPSAB1 /// TPSB2 (11721975_s_at) / RFU GSTM3 (11746129_a_at) / Fold change /veh GSTM3 (11746129_a_at) / RFU IL23R (11737362_x_at) / Fold change /veh IL23R (11737362_x_at) / RFU TMEM51 (11727254_a_at) / Fold change /veh TMEM51 (11727254_a_at) / RFU PIWIL2 (11732686_x_at) / Fold change /veh PIWIL2 (11732686_x_at) / RFU ORM1 (11744905_x_at) / Fold change /veh ORM1 (11744905_x_at) / RFU CCDC152 (11743942_at) / Fold change /veh CCDC152 (11743942_at) / RFU ECM1 (11717891_a_at) / Fold change /veh ECM1 (11717891_a_at) / RFU IL23R (11748794_a_at) / Fold change /veh IL23R (11748794_a_at) / RFU TNFAIP8L3 (11732012_x_at) / Fold change /veh TNFAIP8L3 (11732012_x_at) / RFU MBOAT4 (11741988_at) / Fold change /veh MBOAT4 (11741988_at) / RFU 11764193_at / Fold change /veh 11764193_at / RFU TMEM53 (11763286_at) / Fold change /veh TMEM53 (11763286_at) / RFU MAGEB2 (11727129_at) / Fold change /veh MAGEB2 (11727129_at) / RFU TMEM200A (11744735_a_at) / Fold change /veh TMEM200A (11744735_a_at) / RFU CCDC152 (11751479_a_at) / Fold change /veh CCDC152 (11751479_a_at) / RFU FAM211A (11726209_a_at) / Fold change /veh FAM211A (11726209_a_at) / RFU RGS16 (11746705_a_at) / Fold change /veh RGS16 (11746705_a_at) / RFU VCAN (11755009_s_at) / Fold change /veh VCAN (11755009_s_at) / RFU RHOB (11743442_s_at) / Fold change /veh RHOB (11743442_s_at) / RFU RGS16 (11720943_a_at) / Fold change /veh RGS16 (11720943_a_at) / RFU RGS16 (11720944_at) / Fold change /veh RGS16 (11720944_at) / RFU, VPS4B / Fold change vs veh, VPS4B / RFU, CREB1 / Fold change vs veh, CREB1 / RFU, DNAJC13 / Fold change vs veh, DNAJC13 / RFU, GNAQ / Fold change vs veh, GNAQ / RFU, CDK5R1 / Fold change vs veh, CDK5R1 / RFU, ZRANB3 / Fold change vs veh, ZRANB3 / RFU, CUL4A / Fold change vs veh, CUL4A / RFU, CCNY / Fold change vs veh, CCNY / RFU, UFL1 / Fold change vs veh, UFL1 / RFU, COG3 / Fold change vs veh, COG3 / RFU, DIAPH2 / Fold change vs veh, DIAPH2 / RFU, SKA2 / Fold change vs veh, SKA2 / RFU, AFF3 / Fold change vs veh, AFF3 / RFU, LMF1 / Fold change vs veh, LMF1 / RFU, IPO11 / Fold change vs veh, IPO11 / RFU, DFFB / Fold change vs veh, DFFB / RFU, FOXP1 / Fold change vs veh, FOXP1 / RFU, CARD8 / Fold change vs veh, CARD8 / RFU, STRN3 / Fold change vs veh, STRN3 / RFU, ADK / Fold change vs veh, ADK / RFU, RASSF2 / Fold change vs veh, RASSF2 / RFU, WIPF1 / Fold change vs veh, WIPF1 / RFU, LARP1B / Fold change vs veh, LARP1B / RFU, RASA1 / Fold change vs veh, RASA1 / RFU, RB1 / Fold change vs veh, RB1 / RFU, PPFIA1 / Fold change vs veh, PPFIA1 / RFU, MAT2A / Fold change vs veh, MAT2A / RFU, CCT5 / Fold change vs veh, CCT5 / RFU, WDR92 / Fold change vs veh, WDR92 / RFU, CUX1 / Fold change vs veh, CUX1 / RFU, TTC7A / Fold change vs veh, TTC7A / RFU, TMEM135 / Fold change vs veh, TMEM135 / RFU, DEPTOR / Fold change vs veh, DEPTOR / RFU, CPM / Fold change vs veh, CPM / RFU, DNAJB6 / Fold change vs veh, DNAJB6 / RFU, CACNA2D3 / Fold change vs veh, CACNA2D3 / RFU, DTX4 / Fold change vs veh, DTX4 / RFU, TFCP2 / Fold change vs veh, TFCP2 / RFU, GMCL1 /// GMCL1P1 / Fold change vs veh, GMCL1 /// GMCL1P1 / RFU, AEBP2 / Fold change vs veh, AEBP2 / RFU, SNHG1 /// SNORD22 /// SNORD25 /// SNORD26 /// SNORD27 /// SNORD28 /// SNORD29 /// SNORD31 / Fold change vs veh, SNHG1 /// SNORD22 /// SNORD25 /// SNORD26 /// SNORD27 /// SNORD28 /// SNORD29 /// SNORD31 / Fold change (Aza/veh), C12orf56 (ProbeSet 11735607_a_at) / Fold change (ACY-1035/veh), C12orf56 (ProbeSet 11735607_a_at) / Fold change (Aza/veh), FGFR1OP (ProbeSet 11751329_s_at) / Fold change (ACY-1035/veh), FGFR1OP (ProbeSet 11751329_s_at) / Fold change (Aza/veh), VPS36 (ProbeSet 11739960_a_at) / Fold change (ACY-1035/veh), VPS36 (ProbeSet 11739960_a_at) / RFU SYPL1 (11715823_x_at) / Fold change /veh SYPL1 (11715823_x_at) / RFU IGFBP7 (11715501_s_at) / Fold change /veh IGFBP7 (11715501_s_at) / RFU REEP3 (11722064_at) / Fold change /veh REEP3 (11722064_at) / RFU IGLL1 (11728026_x_at) / Fold change /veh IGLL1 (11728026_x_at): dose or concentration left out as unconfirmed
Conditions: MV-4-11 cells, 48 hours

## Nc1ccc(-c2cccs2)cc1NC(=O)c1ccc2c(c1)cc(C1CC1)n2CCN1CCOCC1 [ACY-1035]
  RFU FAM167A (11723789_a_at): 37.08 RFU
